Results taken from US20070178151A1, “Spray dried pharmaceutical compositions” (priority 2004, published 2007).
Values after ≈ are worked out from the molar mass of the structure shown.

Test: aqueous solubility of talnetant
Type: physicochemical
Settings: aqueous medium
Source text: Typically drugs with low aqueous solubility are absorbed slowly across the walls of the gastrointestinal tract (GIT) due to poor dissolution of the solid in the GIT leading to a small diffusive driving force.

`CC[C@H](NC(=O)c1c(O)c(-c2ccccc2)nc2ccccc12)c1ccccc1` [Talnetant, (S)-(−)-N-(α-ethylbenzyl)-3-hydroxy-2-phenylquinoline4-carboxamide] showed a solubility (aqueous buffer, pH 7.0) of ~1 µg/mL (≈ 2.61 µM) and a solubility (pH 1, simulated gastric fluid) of ~30 µg/mL (≈ 78.4 µM).
